According to ChEMBL document CHEMBL1671626, “In vitro profiling of ceftaroline against a collection of recent bacterial clinical isolates from across the United States” (2008):
≈ marks a conversion by molar mass, not a printed value.

How the values were obtained:
Assay type in all cases: functional
Staphylococcus aureus [1] = test: Antibacterial activity against methicillin-susceptible Staphylococcus aureus by CLSI M7-A7 broth microdilution method
Staphylococcus aureus [2] = test: Antibacterial activity against methicillin-susceptible Staphylococcus aureus assessed as resistant isolates by CLSI M7-A7 broth microdilution method
Staphylococcus aureus [3] = test: Antibacterial activity against methicillin-resistant Staphylococcus aureus assessed as resistant isolates by CLSI M7-A7 broth microdilution method
Staphylococcus aureus [4] = test: Antibacterial activity against coagulase-negative and oxacillin-susceptible Staphylococcus aureus assessed as resistant isolates by CLSI M7-A7 broth microdilution method
Staphylococcus aureus [5] = test: Antibacterial activity against coagulase-negative and oxacillin-resistant Staphylococcus aureus by CLSI M7-A7 broth microdilution method
Staphylococcus aureus [6] = test: Antibacterial activity against coagulase-negative and oxacillin-resistant Staphylococcus aureus assessed as susceptible isolates by CLSI M7-A7 broth microdilution method
Streptococcus pneumoniae [7] = test: Antibacterial activity against penicillin-susceptible Streptococcus pneumoniae assessed as susceptible isolates by CLSI M7-A7 broth microdilution method
Streptococcus pneumoniae [8] = test: Antibacterial activity against penicillin-resistant Streptococcus pneumoniae by CLSI M7-A7 broth microdilution method
Streptococcus pneumoniae [9] = test: Antibacterial activity against penicillin-resistant Streptococcus pneumoniae assessed as resistant isolates by CLSI M7-A7 broth microdilution method
Streptococcus pyogenes = test: Antibacterial activity against erythromycin-nonsusceptible Streptococcus pyogenes by CLSI M7-A7 broth microdilution method
Streptococcus agalactiae [10] = test: Antibacterial activity against erythromycin-susceptible Streptococcus agalactiae by CLSI M7-A7 broth microdilution method
Streptococcus agalactiae [11] = test: Antibacterial activity against erythromycin-nonsusceptible Streptococcus agalactiae by CLSI M7-A7 broth microdilution method
Streptococcus viridans [12] = test: Antibacterial activity against penicillin-susceptible Streptococcus viridans by CLSI M7-A7 broth microdilution method
Streptococcus viridans [13] = test: Antibacterial activity against penicillin-nonsusceptible Streptococcus viridans by CLSI M7-A7 broth microdilution method
Enterobacteriaceae [14] = test: Antibacterial activity against ceftazidime-susceptible Enterobacteriaceae by CLSI M7-A7 broth microdilution method
Enterobacteriaceae [15] = test: Antibacterial activity against ceftazidime-susceptible Enterobacteriaceae assessed as susceptible isolates by CLSI M7-A7 broth microdilution method
Enterobacteriaceae [16] = test: Antibacterial activity against ceftazidime-susceptible Enterobacteriaceae assessed as resistant isolates by CLSI M7-A7 broth microdilution method
Enterobacteriaceae [17] = test: Antibacterial activity against ceftazidime-nonsusceptible Enterobacteriaceae assessed as susceptible isolates by CLSI M7-A7 broth microdilution method
Enterobacteriaceae [18] = test: Antibacterial activity against ceftazidime-nonsusceptible Enterobacteriaceae assessed as resistant isolates by CLSI M7-A7 broth microdilution method
Citrobacter freundii [19] = test: Antibacterial activity against ceftazidime-nonsusceptible Citrobacter freundii by CLSI M7-A7 broth microdilution method
Citrobacter freundii [20] = test: Antibacterial activity against ceftazidime-nonsusceptible Citrobacter freundii assessed as susceptible isolates by CLSI M7-A7 broth microdilution method
Enterobacter cloacae [21] = test: Antibacterial activity against ceftazidime-susceptible Enterobacter cloacae assessed as susceptible isolates by CLSI M7-A7 broth microdilution method
Enterobacter cloacae [22] = test: Antibacterial activity against ceftazidime-susceptible Enterobacter cloacae assessed as resistant isolates by CLSI M7-A7 broth microdilution method
Enterobacter cloacae [23] = test: Antibacterial activity against ceftazidime-nonsusceptible Enterobacter cloacae assessed as resistant isolates by CLSI M7-A7 broth microdilution method
Escherichia coli [24] = test: Antibacterial activity against ceftazidime-susceptible Escherichia coli assessed as susceptible isolates by CLSI M7-A7 broth microdilution method
Escherichia coli [25] = test: Antibacterial activity against ceftazidime-susceptible Escherichia coli assessed as resistant isolates by CLSI M7-A7 broth microdilution method
Escherichia coli [26] = test: Antibacterial activity against ceftazidime-nonsusceptible Escherichia coli by CLSI M7-A7 broth microdilution method
Escherichia coli [27] = test: Antibacterial activity against ceftazidime-nonsusceptible Escherichia coli assessed as resistant isolates by CLSI M7-A7 broth microdilution method
Klebsiella pneumoniae [28] = test: Antibacterial activity against ceftazidime-susceptible Klebsiella pneumoniae assessed as susceptible isolates by CLSI M7-A7 broth microdilution method
Klebsiella pneumoniae [29] = test: Antibacterial activity against ceftazidime-susceptible Klebsiella pneumoniae assessed as resistant isolates by CLSI M7-A7 broth microdilution method
Klebsiella pneumoniae [30] = test: Antibacterial activity against ceftazidime-nonsusceptible Klebsiella pneumoniae by CLSI M7-A7 broth microdilution method
Proteus mirabilis [31] = test: Antibacterial activity against ceftazidime-susceptible Proteus mirabilis by CLSI M7-A7 broth microdilution method
Proteus mirabilis [32] = test: Antibacterial activity against ceftazidime-susceptible Proteus mirabilis assessed as resistant isolates by CLSI M7-A7 broth microdilution method
Acinetobacter [33] = test: Antibacterial activity against multidrug-resistant Acinetobacter by CLSI M7-A7 broth microdilution method
Acinetobacter [34] = test: Antibacterial activity against multidrug-resistant Acinetobacter assessed as susceptible isolates by CLSI M7-A7 broth microdilution method
Acinetobacter [35] = test: Antibacterial activity against multidrug-resistant Acinetobacter assessed as resistant isolates by CLSI M7-A7 broth microdilution method
Acinetobacter [36] = test: Antibacterial activity against imipenem-susceptible Acinetobacter by CLSI M7-A7 broth microdilution method
Acinetobacter [37] = test: Antibacterial activity against imipenem-susceptible Acinetobacter assessed as susceptible isolates by CLSI M7-A7 broth microdilution method
Haemophilus influenzae [38] = test: Antibacterial activity against beta lactamase-negative Haemophilus influenzae by CLSI M7-A7 broth microdilution method
Haemophilus influenzae [39] = test: Antibacterial activity against beta lactamase-negative Haemophilus influenzae assessed as susceptible isolates by CLSI M7-A7 broth microdilution method
Haemophilus influenzae [40] = test: Antibacterial activity against beta lactamase-positive Haemophilus influenzae by CLSI M7-A7 broth microdilution method
Haemophilus influenzae [41] = test: Antibacterial activity against beta lactamase-positive Haemophilus influenzae assessed as susceptible isolates by CLSI M7-A7 broth microdilution method
Moraxella catarrhalis = test: Antibacterial activity against beta lactamase-positive Moraxella catarrhalis by CLSI M7-A7 broth microdilution method
Providencia sp. [42] = test: Antibacterial activity against ceftazidime-susceptible Providencia sp. assessed as susceptible isolates by CLSI M7-A7 broth microdilution method
Providencia sp. [43] = test: Antibacterial activity against ceftazidime-susceptible Providencia sp. assessed as resistant isolates by CLSI M7-A7 broth microdilution method

SMILES: C[C@@H](O)[C@H]1C(=O)N2C(C(=O)O)=C(SCCNC=N)C[C@H]12 [IMIPENEM ANHYDROUS]
- MIC (Staphylococcus aureus [1]): ≤ 0.12 µg/mL
- MIC50 (Staphylococcus aureus [1]): ≤ 0.12 µg/mL
- MIC90 (Staphylococcus aureus [1]): ≤ 0.12 µg/mL
- Activity (Staphylococcus aureus [2]): 0.3%
- Activity (Staphylococcus aureus [3]): 13.5%
- Activity (Staphylococcus aureus [4]): 0%
- MIC50 (Staphylococcus aureus [5]): 0.5 µg/mL (≈ 1.67 µM)
- MIC90 (Staphylococcus aureus [5]): 16 µg/mL (≈ 53.4 µM)
- Activity (Staphylococcus aureus [6]): 77.3%
- Activity (Streptococcus pneumoniae [7]): 96.5%
- MIC50 (Streptococcus pneumoniae [8]): 0.25 µg/mL (≈ 0.835 µM)
- MIC90 (Streptococcus pneumoniae [8]): 1 µg/mL (≈ 3.34 µM)
- Activity (Streptococcus pneumoniae [9]): 10.8%
- MIC (Streptococcus pyogenes): ≤ 0.015 µg/mL
- MIC50 (Streptococcus pyogenes): ≤ 0.015 µg/mL
- MIC90 (Streptococcus pyogenes): ≤ 0.015 µg/mL
- MIC (Streptococcus agalactiae [10]): ≤ 0.015 µg/mL
- MIC50 (Streptococcus agalactiae [10]): ≤ 0.015 µg/mL
- MIC90 (Streptococcus agalactiae [10]): 0.03 µg/mL (≈ 0.1 µM)
- MIC (Streptococcus agalactiae [11]): ≤ 0.015 µg/mL
- MIC50 (Streptococcus agalactiae [11]): ≤ 0.015 µg/mL
- MIC90 (Streptococcus agalactiae [11]): 0.03 µg/mL (≈ 0.1 µM)
- MIC (Streptococcus viridans [12]): ≤ 0.015 µg/mL
- MIC50 (Streptococcus viridans [12]): ≤ 0.015 µg/mL
- MIC90 (Streptococcus viridans [12]): 0.06 µg/mL (≈ 0.2 µM)
- MIC50 (Streptococcus viridans [13]): 0.06 µg/mL (≈ 0.2 µM)
- MIC90 (Streptococcus viridans [13]): 1 µg/mL (≈ 3.34 µM)
- MIC50 (Enterobacteriaceae [14]): 0.25 µg/mL (≈ 0.835 µM)
- MIC90 (Enterobacteriaceae [14]): 1 µg/mL (≈ 3.34 µM)
- Activity (Enterobacteriaceae [15]): 100%
- Activity (Enterobacteriaceae [16]): 0%
- Activity (Enterobacteriaceae [17]): 92.3%
- Activity (Enterobacteriaceae [18]): 4.5%
- MIC50 (Citrobacter freundii [19]): 0.5 µg/mL (≈ 1.67 µM)
- MIC90 (Citrobacter freundii [19]): 1 µg/mL (≈ 3.34 µM)
- Activity (Citrobacter freundii [20]): 100%
- Activity (Enterobacter cloacae [21]): 100%
- Activity (Enterobacter cloacae [22]): 0%
- Activity (Enterobacter cloacae [23]): 2.9%
- Activity (Escherichia coli [24]): 100%
- Activity (Escherichia coli [25]): 0%
- MIC50 (Escherichia coli [26]): 0.25 µg/mL (≈ 0.835 µM)
- MIC90 (Escherichia coli [26]): 1 µg/mL (≈ 3.34 µM)
- Activity (Escherichia coli [27]): 3.2%
- Activity (Klebsiella pneumoniae [28]): 100%
- Activity (Klebsiella pneumoniae [29]): 0%
- MIC50 (Klebsiella pneumoniae [30]): 0.12 µg/mL (≈ 0.401 µM)
- MIC90 (Klebsiella pneumoniae [30]): 16 µg/mL (≈ 53.4 µM)
- MIC50 (Proteus mirabilis [31]): 2 µg/mL (≈ 6.68 µM)
- MIC90 (Proteus mirabilis [31]): 4 µg/mL (≈ 13.4 µM)
- Activity (Proteus mirabilis [32]): 0%
- MIC50 (Acinetobacter [33]): 0.5 µg/mL (≈ 1.67 µM)
- MIC90 (Acinetobacter [33]): 32 µg/mL (≈ 107 µM)
- Activity (Acinetobacter [34]): 68.8%
- Activity (Acinetobacter [35]): 31.3%
- MIC50 (Acinetobacter [36]): 0.25 µg/mL (≈ 0.835 µM)
- MIC90 (Acinetobacter [36]): 0.5 µg/mL (≈ 1.67 µM)
- Activity (Acinetobacter [37]): 100%
- MIC50 (Haemophilus influenzae [38]): 0.25 µg/mL (≈ 0.835 µM)
- MIC90 (Haemophilus influenzae [38]): 0.5 µg/mL (≈ 1.67 µM)
- Activity (Haemophilus influenzae [39]): 100%
- MIC50 (Haemophilus influenzae [40]): 0.12 µg/mL (≈ 0.401 µM)
- MIC90 (Haemophilus influenzae [40]): 0.5 µg/mL (≈ 1.67 µM)
- Activity (Haemophilus influenzae [41]): 100%
- MIC (Moraxella catarrhalis): ≤ 0.12 µg/mL
- MIC50 (Moraxella catarrhalis): ≤ 0.12 µg/mL
- MIC90 (Moraxella catarrhalis): ≤ 0.12 µg/mL
- Activity (Providencia sp. [42]): 100%
- Activity (Providencia sp. [43]): 0%
